Patent US20250339425A1 (Northeastern University, priority 2024, published 2025)
Read-outs that look alike come from different tables or passages of the source.

How the values were obtained:
α9α10 nAChR = target: T1, α9α10 nAChR (Homo sapiens, UniProt Q9GZZ6+Q9UGM1); assay: Inhibition of ACh-evoked currents, co-application with 60 μM ACh, oocytes expressing α9α10; assay type: cell-based; details: co-applied with 60 μM ACh; unit not printed for these values (α9 values in μM); read-out: IC50 as antagonist on α9α10
T1 construct: expressed in transfected cells; host or cells: Xenopus laevis oocytes injected with in vitro transcribed RNA
Protocol: (§1) FIGS. 13A-13B show inhibition concentration-response studies for chiral diMPP compounds (2R)PA-diMPP (8) and (2S)PA-diMPP (9), identified as α9 and α9α10 antagonists.
(§2) Experimental responses were measured relative to the preceding ACh control response. […] The transition from agonist to antagonist behavior in α7 to α9* nAChRs indicates a slightly bigger dialkyl tail on nitrogen, or perhaps more importantly, the asymmetry of the groups and potential for multiple rotamers is important for α9 agonism, while chirality is more important for α7 selectivity.
(§3) Two-electrode voltage-clamp experiments were conducted using OpusXpress 6000A (Molecular Devices, Union City CA, USA). Both the voltage and current electrodes were filled with 3 M KCl. Oocytes were voltage-clamped at −60 mV at room temperature. The oocytes were perfused with Ringer's solution (115 mM NaCl, 2.5 mM KCl, 1.8 mM CaCl2), 10 mM HEPES, 1 μM atropine, pH 7.2) at 2 ml/min. […] Drug applications were 12 s in duration followed by 181 s washout periods.

α9 nAChR [1] = target: T2, α9 nAChR (Homo sapiens, UniProt Q9UGM1)
[2] = test system: BzATP-induced release of IL-1β by human monocytic THP-1 cells; assay: BzATP-induced release of IL-1β by LPS-primed monocytic THP-1 cells (ELISA)
Protocol: Monocytic THP-1 cells were primed with lipopolysaccharide (LPS; 1 μg/ml, 5 hours). Thereafter, the P2X7 receptor agonist BzATP (100 μM) was added for another 40 minutes to trigger IL-1β release. […] The IL-1β concentrations obtained after stimulation with BzATP+solvent were set to 100% and all other values were calculated accordingly. Data are presented as individual data points, the bar represents the median, and whiskers encompass the 25th to 75th percentile. *p≤0.05, different from LPS-primed cells stimulated with BzATP alone. Friedman test followed by the Wilcoxon signed-rank test.
The new compounds were tested for the ability to down-regulate the ATP-mediated release of 10 IL-1β by human monocytic THP-1 cells.
Monocytic THP-1 cells were primed with lipopolysaccharide (LPS, 1 μg/ml) for 5 hours and further stimulated them with BzATP (100 μg/ml) for 40 minutes to induce the maturation and release of IL-1β.
The monocytic THP-1 cell line was obtained from the German Collection of Microorganisms and Cell Cultures (Braunschweig, Germany). […] Thereafter, 0.5×10^6 cells/0.5 ml and per well were seeded in 48-well plates (Greiner Bio-One, Frickenhausen, Germany) as described previously.^27 The cells were primed with LPS (1 μg/ml; E. coli O26:B6, Merck, Darmstadt, Germany, Cat #L2654) for 5 h under 5% CO2 atmosphere at 37° C. […] After the treatment, cells were spun down (500 g, 8 min, 4° C.) to collect the cell-free supernatants, that were stored at −20° C. for later measurements of IL-1β and lactate dehydrogenase (LDH) activity.
To measure IL-1β concentrations in the cell-free supernatants the Human IL-1 beta/IL-1F2 DuoSet enzyme-linked immunosorbent assay (ELISA) from R&D Systems (Cat #DY201) was used according to the supplier's instructions. In parallel, LDH activity was measured to test for cell viability at the end of the cell culture experiments, using the CytoTox 96® Non-Radioactive Cytotoxicity Assay (Promega, Madison, WI, United States; Cat #G1780) according to the supplier's instructions.
Results obtained in the BzATP-induced IL-1β release experiments were analyzed using SPSS (Version 27, IBM, Armonk, NY, United States). The data were analyzed first by the Friedman test followed by the Wilcoxon signed-rank test. […] The number (n) of individual experiments is indicated in the Figures and refers to independent experiments, which were performed on different days with different cell passages.

human α7 nAChR = human α7 nAChR (Homo sapiens, UniProt P36544)
α9 nAChR [3] = target: T2, α9 nAChR; assay: Inhibition of ACh-evoked currents, co-application with 60 μM ACh, oocytes expressing α9; assay type: cell-based; parameters: expressed in transfected cells; host or cells: Xenopus laevis oocytes injected with in vitro transcribed RNA; details: co-applied with 60 μM ACh; read-out: IC50 as antagonist on α9
Protocol: as §1, §2, §3

α9 nAChR [4] = target: T2, α9 nAChR; assay: cell-based
[5] = test system: CFA-induced inflammatory pain in mice; details: previously reported α9 nAChR agonist; cited from earlier work
in vitro = details: BALB/c, mouse, pooled mouse plasma

T2 sequence (Q9UGM1 26-479 limits assumed): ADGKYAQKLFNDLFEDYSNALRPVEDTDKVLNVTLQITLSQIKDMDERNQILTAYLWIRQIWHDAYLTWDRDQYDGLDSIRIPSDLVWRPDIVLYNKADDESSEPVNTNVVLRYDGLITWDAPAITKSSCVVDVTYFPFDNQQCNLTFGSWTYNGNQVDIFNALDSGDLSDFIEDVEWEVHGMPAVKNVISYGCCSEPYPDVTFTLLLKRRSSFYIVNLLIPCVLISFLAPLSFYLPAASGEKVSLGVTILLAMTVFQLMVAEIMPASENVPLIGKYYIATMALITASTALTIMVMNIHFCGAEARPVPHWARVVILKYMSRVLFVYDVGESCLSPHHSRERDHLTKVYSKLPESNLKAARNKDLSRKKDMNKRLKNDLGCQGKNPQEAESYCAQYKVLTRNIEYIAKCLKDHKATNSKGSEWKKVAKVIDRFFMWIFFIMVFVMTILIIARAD
Chain of human α7 nAChR (P36544 23-502): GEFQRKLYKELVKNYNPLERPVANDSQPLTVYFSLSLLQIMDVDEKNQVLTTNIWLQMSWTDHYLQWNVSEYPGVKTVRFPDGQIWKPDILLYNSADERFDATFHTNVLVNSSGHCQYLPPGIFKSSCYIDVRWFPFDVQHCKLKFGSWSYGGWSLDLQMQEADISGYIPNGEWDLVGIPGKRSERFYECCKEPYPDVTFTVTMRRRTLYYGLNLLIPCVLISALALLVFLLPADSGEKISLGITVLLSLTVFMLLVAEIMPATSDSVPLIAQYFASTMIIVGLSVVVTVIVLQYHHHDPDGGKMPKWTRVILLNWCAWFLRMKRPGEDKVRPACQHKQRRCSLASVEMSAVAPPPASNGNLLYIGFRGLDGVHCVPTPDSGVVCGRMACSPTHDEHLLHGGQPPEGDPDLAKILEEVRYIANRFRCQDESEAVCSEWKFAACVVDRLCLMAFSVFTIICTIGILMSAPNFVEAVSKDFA
T1 sequence (Q9UGM1 26-479 limits assumed): as the sequence (Q9UGM1 26-479 limits assumed) above
T1 sequence (Q9GZZ6 25-450): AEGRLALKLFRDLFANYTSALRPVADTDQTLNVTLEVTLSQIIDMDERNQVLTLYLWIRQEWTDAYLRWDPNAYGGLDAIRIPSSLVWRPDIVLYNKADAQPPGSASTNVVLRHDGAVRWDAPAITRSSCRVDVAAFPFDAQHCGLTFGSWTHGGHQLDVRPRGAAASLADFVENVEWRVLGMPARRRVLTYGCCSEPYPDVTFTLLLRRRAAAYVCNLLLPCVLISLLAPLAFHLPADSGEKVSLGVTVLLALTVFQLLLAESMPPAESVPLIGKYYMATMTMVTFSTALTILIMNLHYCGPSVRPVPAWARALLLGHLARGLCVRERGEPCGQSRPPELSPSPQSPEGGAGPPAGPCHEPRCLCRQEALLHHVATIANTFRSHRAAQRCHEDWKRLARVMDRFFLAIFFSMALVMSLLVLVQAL

SMILES | α9 Imax (α9 nAChR [1]; Table 3, reverse amide GATs) | EC50 (α9 nAChR [4]) [nM] | EC50 (human α7 nAChR) [nM] | α7 Imax (human α7 nAChR; Table 3) | further results
Cc1cccc(NC(=O)c2ccc(N3CC[N+](C)(C)[C@H](C)C3)cc2)n1 [IV-f] |  |  |  |  | IC50 (α9α10 nAChR): 0.406 ± 0.15 µM; receptor selectivity α9 vs α7 (α9 nAChR [1]): selective for α7; type of activity at α9 / α9* nAChR (α9 nAChR [1]): antagonists of the alpha 9 nicotinic acetylcholine receptor; α9 Imax (α9 nAChR [1]; Table 2, chiral compounds): 0.0065 ± 0.72; α9 Imax (α9 nAChR [1]; Table 4, chiral EMPPs and diMPPs): 0.0065 ± 0.72; type of activity at α9 / α9* nAChR (α9 nAChR [1]; listed as (2R)PA-diMPP): lost nearly all agonist activity for α9* receptors; inhibition of BzATP-induced release of IL-1β ([2]; LPS-primed THP-1 cells, BzATP, ACh at 10 μM): significantly inhibited; antagonism of the effect of ACh on IL-1β release ([2]; all concentrations investigated (1 nM to 100 μM), ACh 10 μM): significantly antagonized the effect of ACh; α7 Imax (human α7 nAChR; Table 2, chiral compounds): 0.426 ± 0.021; α7 Imax (human α7 nAChR; Table 4): 0.426 ± 0.02; EC50 (human α7 nAChR; read-out: α7 EC50, Table 2, unit inferred): 3060 ± 380 nM; EC50 (human α7 nAChR; read-out: α7 EC50, Table 4, unit inferred): 3060 ± 380 nM; IC50 (α9 nAChR [3]): 210 ± 60 nM
CC[N+]1(C)CCN(c2ccc(NC(=O)c3cccc(Br)n3)cc2)CC1 [V-a] | 0.936 ± 0.04 | 440 ± 108 | 7100 ± 3170 | 0.094 ± 0.012 | 
CC[N+]1(C)CCN(c2ccc(NC(=O)c3cccc(Cl)n3)cc2)CC1 [V-b] | 1.00 ± 0.18 | 560 ± 65 | 14000 | 0.10 ± 0.028 | 
CC[N+]1(C)CCN(c2ccc(NC(=O)c3cccc(F)n3)cc2)CC1 [V-c] | 1.2 ± 0.13 | 810 ± 380 |  | 0.000 ± 0.000 | 
CC[N+]1(C)CCN(c2ccc(NC(=O)c3ccc4ccccc4n3)cc2)CC1 [V-f] | 1.008 ± 0.048 | 157 | 2030 ± 540 | 0.124 ± 0.009 | 
CC[N+]1(C)CCN(c2ccc(NC(=O)c3ccc(C)cn3)cc2)CC1 [V-h] | 1.00 ± 0.08 | 440 ± 140 | 315000 | 0.266 ± 0.33 | 
CC[N+]1(C)CCN(c2ccc(NC(=O)c3ncc(C(F)(F)F)cc3Cl)cc2)CC1 [V-i] | 1.23 ± 0.13 | 810 ± 380 |  | 0.001 ± 0.14 | 
CC[N+]1(CC)CCN(c2ccc(C#N)cc2)CC1 [pCN-diEPP] |  |  |  |  | effective duration against CFA-induced pain like behaviors [5]: 3 to 6 h
CCN(CC)CCOC(=O)c1ccc(N)cc1 [procaine] |  |  |  |  | half-life at 1 μM (in vitro): < 5 min
